What is called IC50 is the midpoint of a concentration-inhibition curve. A high value points to weaker potency.

The target in the experiment is T1, FXR (Homo sapiens, UniProt Q96RI1).
T1 construct: 5 μL of 20 nM FXR-LBD Complete Coregulator buffer G; purchased ThermoFisher PV4833
T1 sequence (Q96RI1 262-486 limits assumed): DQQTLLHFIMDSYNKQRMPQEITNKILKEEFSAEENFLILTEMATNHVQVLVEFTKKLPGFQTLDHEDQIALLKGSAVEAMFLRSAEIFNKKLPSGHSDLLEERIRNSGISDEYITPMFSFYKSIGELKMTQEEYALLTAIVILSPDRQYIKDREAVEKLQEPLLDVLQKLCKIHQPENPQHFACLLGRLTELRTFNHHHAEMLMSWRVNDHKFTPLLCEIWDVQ
In words: FXR antagonist screening by TR-FRET (LanthaScreen TR-FRET FXR co-activation assay kit). Conditions: Table 1.1, FXR antagonistic activity; TR-FRET with CDCA; geometric means of at least two independent runs. It is filed as biochemical. In outline: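 FXR-LBD (20 nM working solution) mixed with compound, CDCA (200 μM working solution) as agonist, Fluorescein-SRC2-2 and Tb-anti-GST antibody in Coregulator buffer G; 10 h at room temperature. Coactivator recruitment read by TR-FRET, triplicate wells.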
(TR-FRET usually uses a lanthanide donor and a delayed reading to cut background.)

Compound `CCOC(=O)c1oc2ccc(S(=O)(=O)N(CCc3ccccc3)c3ccc(N4CCN(C(=O)OC(C)(C)C)CC4)cc3)cc2c1C` [Example M8-65, ethyl 3-methyl-5-(N-(4-(4-(tert-butoxycarbonyl)piperazin-1-yl)phenyl)-N-phenethylsulfamoyl)benzofuran-2-carboxylate] came in with an IC50 of 50 to 100 µM.
In the case of `CCOC(=O)c1oc2ccc(S(=O)(=O)N(CCc3ccccc3)c3ccc(N4CCN(C(=O)CC(C)(C)C)CC4)cc3)cc2c1C` [Example M8-66, ethyl 3-methyl-5-(N-(4-(4-(3,3-dimethylbutyryl)piperazin-1-yl)phenyl)-N-phenethylsulfamoyl)benzofuran-2-carboxylate] it was 50 to 100 µM; in that of `CCCOC(=O)N1CCN(c2ccc(N(CCc3ccccc3)S(=O)(=O)c3ccc4oc(C(=O)OCC)c(C)c4c3)cc2)CC1` [Example M8-67, ethyl 3-methyl-5-(N-(4-(4-(propoxycarbonyl)piperazin-1-yl)phenyl)-N-phenethylsulfamoyl)benzo furan-2-carboxylate], 50 to 100 µM.
As for `CCOC(=O)c1oc2ccc(S(=O)(=O)N(CCc3ccccc3)c3ccc(N4CCN(C(C)=O)CC4)cc3)cc2c1C` [Example M8-68, ethyl 3-methyl-5-(N-(4-(4-acetylpiperazin-1-yl)phenyl)-N-phenethylsulfamoyl)benzofuran-2-carboxylate], the IC50 lay within 50 to 100 µM.
The figure for `CCOC(=O)c1oc2ccc(S(=O)(=O)N(CCc3ccccc3)c3ccc(N4CCN(C(=O)c5ccccc5)CC4)cc3)cc2c1C` [Example M8-69, ethyl 3-methyl-5-(N-(4-(4-benzoylpiperazin-1-yl)phenyl)-N-phenethylsulfamoyl)-3-methylbenzofuran-2-carboxylate] is 50 to 100 µM; for `CCOC(=O)c1oc2ccc(S(=O)(=O)N(CCc3ccccc3)c3ccc(N4CCN(Cc5ccccc5)CC4)cc3)cc2c1C` [Example M8-70, ethyl 3-methyl-5-(N-(4-(4-benzylpiperazin-1-yl)phenyl)-N-phenethylsulfamoyl)benzofuran-2-carboxylate] it is 50 to 100 µM.
In the case of `CCOC(=O)c1oc2ccc(S(=O)(=O)N(CCc3ccccc3)c3ccc(N4CCN(C(=O)N(C)C)CC4)cc3)cc2c1C` [Example M8-71, ethyl 3-methyl-5-(N-(4-(4-(dimethylcarbamoyl)piperazin-1-yl)phenyl)-N-phenethylsulfamoyl)benzofuran-2-carboxylate] it was 50 to 100 µM; in that of `CCOC(=O)c1oc2ccc(S(=O)(=O)N(CCc3ccccc3)c3ccc(N4CCN(S(C)(=O)=O)CC4)cc3)cc2c1C` [Example M8-72, ethyl 3-methyl-5-(N-(4-(4-(methylsulfonyl)piperazin-1-yl)phenyl)-N-phenethylsulfamoyl)benzofuran-2-carboxylate], 50 to 100 µM.
The figure for `CCOC(=O)c1oc2ccc(S(=O)(=O)N(CCc3ccccc3)c3ccc(N4CCN(C(=O)OC(C)(C)C)CC4)c(C(F)(F)F)c3)cc2c1C` [Example M8-74, ethyl 3-methyl-5-(N-(4-(4-(tert-butoxycarbonyl)piperazin-1-yl)-3-(trifluoromethyl)phenyl)-N-phenethylsulfamoyl)benzofuran-2-carboxylate] is 50 to 100 µM.
In turn, `CCOC(=O)c1oc2ccc(S(=O)(=O)N(CCc3ccccc3)c3ccc(N4CCN(C(=O)OC(C)(C)C)CC4)nc3)cc2c1C` [Example M8-75, ethyl 3-methyl-5-(N-(6-(4-(tert-butoxycarbonyl)piperazin-1-yl)pyridin-3-yl)-N-phenethylsulfamoyl)benzofuran-2-carboxylate] registered an IC50 of 50 to 100 µM.
In the case of `CCOC(=O)c1oc2ccc(S(=O)(=O)N(CCc3ccccc3)c3ccc(CN4CCN(C(=O)OC(C)(C)C)CC4)cc3)cc2c1C` [Example M8-76, ethyl 3-methyl-5-(N-(4-((4-(tert-butoxycarbonyl)piperazin-1-yl)methyl)phenyl)-N-phenethylsulfamoyl)benzofuran-2-carboxylate], the IC50 was in the range of 50 to 100 µM.
The figure for `CCOC(=O)c1oc2ccc(S(=O)(=O)N(CCc3ccccc3)c3ccccc3N3CCN(C(=O)OC(C)(C)C)CC3)cc2c1C` [Example M8-77, ethyl 3-methyl-5-(N-(2-(4-(tert-butoxycarbonyl)piperazin-1-yl)phenyl)-N-phenethylsulfamoyl)benzofuran-2-carboxylate] is 50 to 100 µM; for `CCOC(=O)c1oc2ccc(S(=O)(=O)N(CCc3ccccc3)c3cccc(N4CCN(C)CC4)c3)cc2c1C` [Example M8-78, ethyl 3-methyl-5-(N-(3-(4-methylpiperazin-1-yl)phenyl)-N-phenethylsulfamoyl)benzofuran-2-carboxylate] it is 50 to 100 µM; for `CCOC(=O)c1oc2ccc(S(=O)(=O)N(CCc3ccccc3)Cc3ccc(N4CCOCC4)cc3)cc2c1C` [Example M8-79, ethyl 3-methyl-5-(N-(4-morpholinobenzyl)-N-phenethylsulfamoyl)benzofuran-2-carboxylate] it is 50 to 100 µM.
The figure for `CCOC(=O)c1oc2ccc(S(=O)(=O)N(CCc3ccccc3)Cc3ccc(N4CCN(C)CC4)cc3)cc2c1C` [Example M8-80, ethyl 3-methyl-5-(N-(4-(4-methylpiperazin-1-yl)benzyl)-N-phenethylsulfamoyl)benzofuran-2-carboxylate] is 50 to 100 µM; for `CCOC(=O)c1oc2ccc(S(=O)(=O)N(CCc3ccccc3)Cc3ccc(N4CCN(C(=O)OC(C)(C)C)CC4)cc3)cc2c1C` [Example M8-81, ethyl 3-methyl-5-(N-(4-(4-(tert-butoxycarbonyl)piperazin-1-yl)benzyl)-N-phenethylsulfamoyl)benzofuran-2-carboxylate] it is 50 to 100 µM; for `CCOC(=O)c1oc2ccc(S(=O)(=O)N(CCc3ccccc3)Cc3ccc(Oc4ccccc4)cc3)cc2c1C` [Example M8-86, ethyl 3-methyl-5-(N-phenethyl-N-(4-phenoxybenzyl)sulfamoyl)benzofuran-2-carboxylate] it is 50 to 100 µM.
Compound `CCOC(=O)c1oc2ccc(S(=O)(=O)N(CCc3ccccc3)Cc3ccccc3N3CCN(C(=O)OC(C)(C)C)CC3)cc2c1C` [Example M8-87, ethyl 3-methyl-5-(N-(2-(4-(tert-butoxycarbonyl)piperazin-1-yl)benzyl)-N-phenethylsulfamoyl)benzofuran-2-carboxylate] yielded an IC50 of 50 to 100 µM.
In the case of `CCOC(=O)c1oc2ccc(S(=O)(=O)N(CCc3ccccc3)Cc3cccc(N4CCN(C(=O)OC(C)(C)C)CC4)c3)cc2c1C` [Example M8-88, ethyl 3-methyl-5-(N-(3-(4-(tert-butoxycarbonyl)piperazin-1-yl)benzyl)-N-phenethylsulfamoyl)benzofuran-2-carboxylate] it was 50 to 100 µM; in that of `CCOC(=O)c1oc2ccc(S(=O)(=O)N(CCc3ccccc3)c3ccccc3N3CCNCC3)cc2c1C` [Example M9-1, ethyl 3-methyl-5-(N-phenethyl-N-(2-(piperazin-1-yl)phenyl)sulfamoyl)benzofuran-2-carboxylate], 50 to 100 µM; in that of `CCOC(=O)c1oc2ccc(S(=O)(=O)N(CCc3ccccc3)Cc3ccccc3N3CCNCC3)cc2c1C` [Example M9-2, ethyl 3-methyl-5-(N-phenethyl-N-(2-(piperazin-1-yl)benzyl)sulfamoyl)benzofuran-2-carboxylate], 50 to 100 µM.
The figure for `CCOC(=O)c1oc2ccc(S(=O)(=O)N(CCc3ccccc3)c3ccccc3N3CC[N+](C)(C)CC3)cc2c1C` [Example M10-90, 4-(2-((2-(ethoxycarbonyl)-3-methyl-N-phenethylbenzofuran)-5-sulfonylamino)phenyl)-1,1-dimethylpiperazin-1-ium] is 50 to 100 µM; for `CCOC(=O)c1oc2ccc(S(=O)(=O)N(CCc3ccccc3)c3ccccc3N3CCN(C(C)=O)CC3)cc2c1C` [Example M10-91, ethyl 3-methyl-5-(N-(2-(4-acetylpiperazin-1-yl)phenyl)-N-phenethylsulfamoyl)benzofuran-2-carboxylate] it is 50 to 100 µM.
The figure for `CCOC(=O)c1oc2ccc(S(=O)(=O)N(CCc3ccccc3)c3ccccc3N3CCN(S(C)(=O)=O)CC3)cc2c1C` [Example M10-93, ethyl 3-methyl-5-(N-(2-(4-(methylsulfonyl)piperazin-1-yl)phenyl)-N-phenethylsulfamoyl)benzofuran-2-carboxylate] is 50 to 100 µM; for `CCOC(=O)c1oc2ccc(S(=O)(=O)N(CCc3ccccc3)c3ccccc3N3CCN(C(=O)CC(C)(C)C)CC3)cc2c1C` [Example M10-94] it is 50 to 100 µM; for `CCOC(=O)c1oc2ccc(S(=O)(=O)N(CCc3ccccc3)c3ccccc3N3CCN(Cc4ccccc4)CC3)cc2c1C` [Example M10-95] it is 50 to 100 µM.
On to `CCOC(=O)c1oc2ccc(S(=O)(=O)N(CCc3ccccc3)c3ccccc3N3CCN(C(=O)c4ccccc4)CC3)cc2c1C` [Example M10-96], for which the IC50 is 50 to 100 µM.
The figure for `CCOC(=O)c1oc2ccc(S(=O)(=O)N(CCc3ccccc3)Cc3ccccc3N3CCN(C)CC3)cc2c1C` [Example M10-98, ethyl 3-methyl-5-(N-(2-(4-methylpiperazin-1-yl)benzyl)-N-phenethylsulfamoyl)benzofuran-2-carboxylate] is 50 to 100 µM.
The figure for `CCOC(=O)c1oc2ccc(S(=O)(=O)N(CCc3ccccc3)Cc3ccccc3N3CC[N+](C)(C)CC3)cc2c1C` [Example M10-99, 4-(2-((2-(ethoxycarbonyl)-3-methyl-N-benzylethylbenzofuran)-5-sulfonylamino)phenyl)-1,1-dimethylpiperazin-1-ium] is 50 to 100 µM.

For the origin of these results see US20240239775A1, “FXR REGULATOR, PREPARATION METHOD THEREFOR, PHARMACEUTICAL COMPOSITION THEREOF AND USE THEREOF” (QINGDAO RUIJI MEDICAL TECHNOLOGY CO., LTD., priority 2021, published 2024).
